Paper PMC4774972, “Activity and Predicted Nephrotoxicity of Synthetic Antibiotics Based on Polymyxin B” (Journal of Medicinal Chemistry, 2016)
Values after ≈ are worked out from the molar mass of the structure shown. Like-named read-outs stand apart in the source and are kept apart here. Bridge positions count the residues as written; N and C are the ends. Square brackets hold non-standard residues; d marks the D form. Peptide text beside a SMILES is read from it. * marks the point of attachment. Phe(4-NH2) = Nc1ccc(C[C@H](N)C(=O)O)cc1; dDab = NCC[C@@H](N)C(=O)O; Octanoyl = CCCCCCCC(=O)*; Dab = NCC[C@H](N)C(=O)O

Tests used:
HepG2 = conditions: CC50 HepG2 (µM)
[1] = test system: P. aeruginosa PA9704, PmxR; conditions: MIC P. aeruginosa PA9704, PmxR (µg/mL)
[2] = test system: K. pneumoniae CI 138-16357-20362, PmxR; conditions: MIC K. pneumoniae CI 138-16357-20362, PmxR (µg/mL)
[3] = test system: A. baumannii CI Ptyela 100734512:2, PmxR; conditions: MIC A. baumannii CI Ptyela 100734512:2, PmxR (µg/mL)
[4] = test system: K. pneumoniae CI Koprana 100650661:1, PmxR; conditions: MIC K. pneumoniae CI Koprana 100650661:1, PmxR (µg/mL)
A. baumannii ATCC 19606 = conditions: MIC A. baumannii ATCC 19606 (µg/mL)
[5] = test system: P. aeruginosa FADDI-PA070, PmxR; conditions: MIC P. aeruginosa FADDI-PA070, PmxR (µg/mL)
K. pneumoniae ATCC 13883 = conditions: MIC K. pneumoniae ATCC 13883 (µg/mL)
[6] = test system: S. aureus ATCC 25923, MSSA; conditions: MIC S. aureus ATCC 25923, MSSA (µg/mL)
[7] = test system: K. pneumoniae CI 138-16357-20362, PmxR; test: microbe, parasite or virus in culture; assay type: cell-based, Klebsiella pneumoniae; conditions: carbapenem & polymyxin resistant clinical isolate; MHB, 5 × 10^5 CFU/mL, 18 h at 37 °C
Method: (§1) Bacteria were either obtained from American Type Culture Collection (ATCC; Manassas, VA, USA) or independent academic clinical isolate collections, as listed in Table S2. Bacteria were cultured in nutrient broth (NB; Bacto Laboratories, catalog no. 234000) or Muller Hinton broth (MHB; Bacto Laboratories, catalog no. 211443) at 37 °C overnight with shaking (∼180 rpm). A sample of each culture was then diluted 50-fold in fresh MHB and incubated at 37 °C for 1.5–3 h with shaking (∼180 rpm). Compound stock solutions were prepared as 0.64 or 2.56 mg/mL in water. The compounds, at twice the final desired concentration, were serially diluted 2-fold across the wells of 96-well plates (Polystyrene, Corning, catalogue No. 3370). Mid log phase bacterial cultures (after 1.5–3 h incubation) were diluted to a final concentration of 5 × 10^5 colony forming units (CFU)/mL, and 50 μL was added to each well giving a final compound concentration range of 32 μg/mL to 0.015 μg/mL (128–0.06 μg/mL for colistin and polymyxin B against the polymyxin resistant clinical isolates). MICs were determined visually after 18 h of incubation at 37 °C, with the MIC defined as the lowest compound concentration at which no bacterial growth was visible.
(§2) Table S2. Bacterial strains used for Minimum Inhibitory Concentration (MIC) […]
(§3) Organism Strain Strain description Strain Source
(§4) Escherichia coli ATCC 25922 FDA strain Seattle 1946 ATCC
(§5) Klebsiella pneumoniae ATCC 13883 Control strain ATCC
(§6) Klebsiella pneumoniae ATCC 700603 Multi-drug resistant ATCC
(§7) Klebsiella pneumoniae BAA-2146 Metallo-beta-lactamase- ATCC
(§8) Acinetobacter baumannii ATCC 19606 Type strain ATCC
(§9) Pseudomonas aeruginosa ATCC 27853 Type strain ATCC
(§10) Pseudomonas aeruginosa FADDI-PA070 Clinical isolate, Nation and Li labs, polymyxin resistant Monash University
(§11) Clinical isolate, Wang Hengzhuang, Pseudomonas aeruginosa PA9704 polymyxin resistant University Hospital of […]
(§12) Ptyela Clinical isolate, Ilias Karaiskos and Acinetobacter baumannii Carbapenem & Helen Giamarellou
(§13) Clinical isolate, Medicine, Hygeia
(§14) Klebsiella pneumoniae Koprana Carbapenem, & General Hospital, […]
(§15) Clinical isolate, (Instituto Dante […]
(§16) polymyxin resistant Cardiologia, São […]

[8] = test system: K. pneumoniae CI Koprana 100650661:1, PmxR; test: microbe, parasite or virus in culture; assay type: cell-based, Klebsiella pneumoniae; conditions: carbapenem & polymyxin resistant clinical isolate; MHB, 5 × 10^5 CFU/mL, 18 h at 37 °C
Method: as §1, §2, §3, §4, §5, §6, §7, §8, §9, §10, §11, §12, §13, §14, §15, §16

[9] = test system: A. baumannii CI Ptyela 100734512:2, PmxR; test: microbe, parasite or virus in culture; assay type: cell-based, Acinetobacter baumannii; conditions: carbapenem & polymyxin resistant clinical isolate; MHB, 5 × 10^5 CFU/mL, 18 h at 37 °C
Method: as §1, §2, §3, §4, §5, §6, §7, §8, §9, §10, §11, §12, §13, §14, §15, §16

HepG2 cells = test: Cytotoxicity assay (resazurin assay); assay type: cell-based, human; conditions: 4000 cells/well, 24 h incubation with compound, fluorescence 560/590
Method: Cytotoxicity to HEK293 and HepG2 cells was determined using the resazurin assay.[67],[68] […] Compounds were then added into each well. After 24 h incubation, 5 μM resazurin was added per well and incubated at 37 °C for 2 h. Fluorescence intensity was then read using a Polarstar Omega with excitation/emission 560/590. The data were then analyzed using GraphPad Prism 6 software. CC50 values were determined using GraphPad Prism 6 software (Inc. La Jolla, CA).

[10] = test system: S. aureus ATCC 25923, MSSA; test: microbe, parasite or virus in culture; assay type: cell-based, Staphylococcus aureus
Method: as §1, §2, §3, §4, §5, §6, §7, §8, §9, §10, §11, §12, §13, §14, §15, §16

SMILES	CC50 (HepG2)	MIC [1]	MIC [2]	MIC [3]	MIC [4]	MIC (A. baumannii ATCC 19606)	MIC [5]	MIC (K. pneumoniae ATCC 13883)	MIC [6]	MIC K. pneumoniae CI 138-16357-20362, PmxR [7]	MIC K. pneumoniae CI Koprana 100650661:1, PmxR [8]	MIC A. baumannii CI Ptyela 100734512:2, PmxR [9]	HepG2 - CC50 (HepG2 cells)	MIC S. aureus ATCC 25923, MSSA ([10]; ATCC 25923, 18 h)	MIC ([10]; Staphylococcus aureus, 18 h, read-out: MIC S. aureus ATCC 25923, MSSA)
CCCCCCCC(=O)N[C@@H](CCN)C(=O)N[C@H](C(=O)N[C@@H](CCN)C(=O)N[C@H]1CCNC(=O)[C@H]([C@@H](C)O)NC(=O)[C@H](Cc2ccc(N)cc2)NC(=O)[C@H](CCN)NC(=O)[C@H](CC(C)C)NC(=O)[C@@H](Cc2ccccc2)NC(=O)[C@H](CCN)NC1=O)[C@@H](C)O [Compound 20] (Octanoyl-[Dab]T[Dab][Dab][Dab][dF]L[Dab][Phe(4-NH2)]T; lactam 4-C)	> 300 µM	> 32 µg/mL	> 32 µg/mL	> 32 µg/mL	> 32 µg/mL	> 32 µg/mL	> 32 µg/mL	> 32 µg/mL	> 32 µg/mL	>32 µg/mL	>32 µg/mL				
CCCCCCCC(=O)N[C@@H](CCN)C(=O)N[C@H](C(=O)N[C@@H](CCN)C(=O)N[C@H]1CCNC(=O)[C@H]([C@@H](C)O)NC(=O)[C@H](CCN)NC(=O)[C@H](CCN)NC(=O)[C@H](CC(C)C)NC(=O)[C@@H](Cc2ccccc2)NC(=O)[C@H](CCCNC(=N)N)NC1=O)[C@@H](C)O [Compound 35] (Octanoyl-[Dab]T[Dab][Dab]R[dF]L[Dab][Dab]T; lactam 4-C)	> 300 µM	> 32 µg/mL	> 32 µg/mL	> 32 µg/mL	> 32 µg/mL	> 32 µg/mL	> 32 µg/mL	> 32 µg/mL	> 32 µg/mL	>32 µg/mL	>32 µg/mL				
CCCCCCCC(=O)N[C@@H](CCN)C(=O)N[C@H](C(=O)N[C@H](CCN)C(=O)N[C@H]1CCNC(=O)[C@H]([C@@H](C)O)NC(=O)[C@H](CCN)NC(=O)[C@H](CCN)NC(=O)[C@H](CC(C)C)NC(=O)[C@@H](Cc2ccccc2)NC(=O)[C@H](CCN)NC1=O)[C@@H](C)O [Compound 36] (Octanoyl-[Dab]T[dDab][Dab][Dab][dF]L[Dab][Dab]T; lactam 4-C)	> 300 µM		> 32 µg/mL	> 32 µg/mL	> 32 µg/mL		> 32 µg/mL		> 32 µg/mL	>32 µg/mL	>32 µg/mL	>32 µg/mL	>300 µM	>32 µg/mL	
CCCCCCCC(=O)NCC(=O)N[C@@H](CCN)C(=O)N[C@H](C(=O)N[C@H]1CCNC(=O)[C@H]([C@@H](C)O)NC(=O)[C@H](CCN)NC(=O)[C@H](CCN)NC(=O)[C@H](CC(C)C)NC(=O)[C@@H](Cc2ccccc2)NC(=O)[C@H](CCN)NC1=O)[C@@H](C)O [Compound 41] (Octanoyl-G[Dab]T[Dab][Dab][dF]L[Dab][Dab]T; lactam 4-C)	> 300 µM	> 32 µg/mL	> 32 µg/mL	> 32 µg/mL	> 32 µg/mL	> 32 µg/mL	> 32 µg/mL		> 32 µg/mL	>32 µg/mL	>32 µg/mL				
CN[C@@H](CC(C)C)C(=O)N[C@H]1C(=O)N[C@@H](CC(N)=O)C(=O)N[C@H]2C(=O)N[C@H]3C(=O)N[C@H](C(=O)N[C@@H](C(=O)O)c4cc(O)cc(O)c4-c4cc3ccc4O)[C@H](O)c3ccc(c(Cl)c3)Oc3cc2cc(c3O[C@H]2O[C@@H](CO)[C@H](O)[C@@H](O)[C@@H]2O[C@@H]2C[C@@](C)(N)[C@@H](O)[C@@H](C)O2)Oc2ccc(cc2Cl)[C@H]1O [Vancomycin, reference compound]													>300 µM		2 µg/mL (≈ 1.38 µM)
